According to patent publication US20220364135A1, “MODIFIED PROPIONIBACTERIUM AND METHODS OF USE” (priority 2019, published 2022):

Key:
cbiMCbl riboswitch = experiment: FbFP reporter assay, WT cbiMCbl riboswitch in FbFP-ΔcobA strain; type: cell-based, P. UF1; conditions: for FbFP expression with VB12 analogues: various concentrations of analogues
Text: (§1) To generate the cbiMCbl riboswitch-FbFP translational fusion constructs, the 5′ UTR (FIG. 6C) containing the promoter of cobA operon, wild-type cbiMCbl riboswitch and ribosome-binding site was PCR amplified from P. UF1 genome (NCBI Genome database, CP018002) with primers S-cobA-1 and S-cobA 22. The codon-optimized FbFP gene (32) was synthesized (GenScript, Piscataway, N.J.) and PCR amplified using primers S-cobA 33 and S-cobA 4. Overlapping PCR was used to ligate the 5′ UTR and FbFP gene using Primers cobA-1 and S-cobA-4, which was subsequently cloned into plasmid pYMZ between BamHI and XbaI sites. Mutations of the cbiMCbl riboswitch were generated by site-directed mutagenesis or overlapping PCR (Table S1). cbiM, cbiN, cbiO, cobA, and tetR reporters were constructed using similar strategies. All plasmids were verified via Sanger sequencing (Genewiz, South Plainfield, N.J.) and introduced into P. UF1 or ΔcobA P. UF1 by electroporation.
(§2) FbFP reporter assays: To perform FbFP fluorescence intensity measurement, bacteria were cultivated for three days in triplicate, washed, and resuspended with PBS. The excitation and emission wavelengths of FbFP were set at 452 nm and 495 nm on a microplate reader (BioTek, Winooski, Vt.), respectively (48). FbFP intensity at 495 nm was normalized by corresponding OD600 values for each sample. P. UF1 strain with an empty vector was used as the baseline for calculation of fluorescence intensity.

cobA operon [1] = experiment: Western blot of cobA operon gene expression under WT cbiMCbl riboswitch in ΔcobA P. UF1 reporter strains; type: cell-based; conditions: for cbiM expression with VB12 analogues: various concentrations of analogues
Text: as §1
Western blot: Bacteria were cultivated for three days, and washed three times, followed by lysozyme digestion (10 mg/ml) for 2 hours at 37° C. Cell lysates were separated by 12% SDS-PAGE, transferred to PVDF membranes (Sigma Aldrich, St. Louis, Mo.), and blocked with Odyssey blocking buffer (Li-Cor Biosciences, Lincoln, Nebr.). Subsequently, membranes were incubated with anti-HIS-tag antibody (Thermo Fisher Scientific, Waltham, Mass.), anti-TetR antibody (Takara Bio, Mountain view, CA), anti-CobA serum antibodies, or anti-LspA serum antibodies (Stock in our lab) for 2 h at room temperature in the blocking buffer with 0.02% Tween 20. After washing with TBST (20 mM Tris, 150 mM NaCl and 0.1% Tween 20, pH 7.4), membranes were incubated with IRDye 680RD goat anti-mouse secondary antibody (Li-Cor Biosciences, Lincoln, Nebr.) for 1 hour at room temperature in the blocking buffer with 0.02% Tween 20. After washing with TBS, the proteins were detected using an Odyssey infrared imaging system (Li-Cor Biosciences, Lincoln, Nebr.). LspA was used as an internal control.

[2] = test system: SL1-deleted riboswitch (ΔSL1); experiment: FbFP reporter assay, SL1-deleted riboswitch in FbFP-ΔcobA strain; type: cell-based, P. UF1
Text: as §1
as §2, with “FbFP intensity at 495 nm was normalized by corresponding OD600 values for each sample.” left out

[3] = test system: SL1-deleted riboswitch (ΔSL1); experiment: Western blot of cbiM expression, SL1-deleted riboswitch in CbiM-ΔcobA strain; type: cell-based, P. UF1; conditions: VB12 0-5000 ng/ml
Text: as §1
Western blot: Bacteria were cultivated for three days, and washed three times, followed by lysozyme digestion (10 mg/ml) for 2 hours at 37° C. […] After washing with TBS, the proteins were detected using an Odyssey infrared imaging system (Li-Cor Biosciences, Lincoln, Nebr.). […]

5′ UTR of cobA operon = experiment: FbFP and cbiM reporter expression in FbFP-WT and CbiM-WT strains; type: cell-based, P. UF1; conditions: FbFP-WT and CbiM-WT cultures
Text: as §1
[…] The excitation and emission wavelengths of FbFP were set at 452 nm and 495 nm on a microplate reader (BioTek, Winooski, Vt.), respectively (48). […] P. UF1 strain with an empty vector was used as the baseline for calculation of fluorescence intensity.
[…] After washing with TBS, the proteins were detected using an Odyssey infrared imaging system (Li-Cor Biosciences, Lincoln, Nebr.). […]

cobA operon [4] = experiment: qRT-PCR of cobA operon transcription; type: cell-based; conditions: P. UF1 incubated with various concentrations of VB12
Text: Quantitative RT-PCR: Total RNA was extracted from various bacterial cultures using Trizol reagent (Thermo Fisher Scientific, Waltham, Mass.), and the RNA mixtures were further purified using the Aurum Total RNA Mini Kit (Bio-Rad, Hercules, Calif.). The cDNA was synthesized from total RNA using iScript Advanced cDNA Synthesis Kit (Bio-Rad, Hercules, Calif.). Quantitative real-time was accomplished with SsoAdvanced Universal SYBR Green Supermix (Bio-Rad, Hercules, Calif.) on a CFX96 real-time PCR system (Bio-Rad, Hercules, Calif.) using primers listed in Table 2 above. Results were normalized to those obtained from groL2 gene.

## C/C1=C2/[N-][C@H]([C@H](CC(N)=O)[C@@]2(C)CCC(=O)NC[C@@H](C)OP(=O)([O-])O[C@H]2[C@@H](O)[C@@H](n3cnc4cc(C)c(C)cc43)O[C@@H]2CO)[C@]2(C)N=C(/C(C)=C3N=C(/C=C4N=C1[C@@H](CCC(N)=O)C\4(C)C)[C@@H](CCC(N)=O)[C@]\3(C)CC(N)=O)[C@@H](CCC(N)=O)[C@]2(C)CC(N)=O.[CH2-][C@H]1O[C@@H](n2cnc3c(N)ncnc32)[C@H](O)[C@@H]1O.[Co] [adenosylcobalamin]
cbiMCbl riboswitch; FbFP-ΔcobA strain
  FbFP expression with VB12 analogues: similarly downregulated
cobA operon [1]; CbiM-ΔcobA strain
  cbiM expression with VB12 analogues: similarly downregulated

## cyanocobalamin
cbiMCbl riboswitch; FbFP-ΔcobA strain
  FbFP expression with VB12 analogues: similarly downregulated
cobA operon [1]; CbiM-ΔcobA strain
  cbiM expression with VB12 analogues: similarly downregulated

## Vitamin B12 [VB12]
cbiMCbl riboswitch
  VB12 concentration completely inhibiting expression of downstream genes by cbiMCbl riboswitch: 750 µM
cbiMCbl riboswitch; FbFP-ΔcobA strain, WT riboswitch
  VB12 concentration at which expression of FbFP was completely abated: 500 ng/mL
cbiMCbl riboswitch; FbFP-ΔcobA strain, WT riboswitch, VB12 0-2500 ng/ml
  half maximal inhibitory concentration (IC50) of VB12 on FbFP expression: 0.0752 µg/mL
cbiMCbl riboswitch; WT riboswitch, 250 ng/ml VB12
  repression of FbFP expression: ~10 fold
[2]; FbFP-ΔcobA strain, ΔSL1 riboswitch, VB12 0-5000 ng/ml
  IC50 of VB12 on FbFP expression, SL1-deleted riboswitch: 12.962 µg/mL
[2]; ΔSL1 vs WT riboswitch
  IC50 with ΔSL1 relative to WT riboswitch: 256 times
cobA operon [1]; CbiM-ΔcobA strain, VB12 0-2500 ng/ml
  cbiM expression (Western blot, HIS-tag antibody): dose-dependent inhibition
cobA operon [1]; CbiN-ΔcobA and CbiO-ΔcobA cultures, VB12 0-25000 ng/ml
  expression of cbiN and cbiO (Western blot): dampened
cobA operon [1]; CobA-ΔcobA strain, VB12 0-25000 ng/ml
  cobA expression (Western blot): dose-dependent inhibition but to a lesser extent
[3]
  cbiM expression, ΔSL1 compared to WT riboswitch: no repression
5′ UTR of cobA operon
  expression of FbFP and cbiM: significantly decreased
cobA operon [4]
  mRNA levels of cbiM, cbiN, cbiO and cbiQ: significantly repressed

## C/C1=C2/[N-][C@H]([C@H](CC(N)=O)[C@@]2(C)CCC(=O)NC[C@@H](C)OP(=O)([O-])O[C@H]2[C@@H](O)[C@@H](n3cnc4cc(C)c(C)cc43)O[C@@H]2CO)[C@]2(C)N=C(/C(C)=C3N=C(/C=C4N=C1[C@@H](CCC(N)=O)C\4(C)C)[C@@H](CCC(N)=O)[C@]\3(C)CC(N)=O)[C@@H](CCC(N)=O)[C@]2(C)CC(N)=O.[Co+3].[OH-] [hydroxocobalamin]
cbiMCbl riboswitch; FbFP-ΔcobA strain
  FbFP expression with VB12 analogues: similarly downregulated
cobA operon [1]; CbiM-ΔcobA strain
  cbiM expression with VB12 analogues: similarly downregulated

## C/C1=C2/[N-][C@H]([C@H](CC(N)=O)[C@@]2(C)CCC(=O)NC[C@H](C)OP(=O)([O-])O[C@H]2[C@@H](O)[C@@H](n3cnc4cc(C)c(C)cc43)O[C@@H]2CO)[C@]2(C)N=C(/C(C)=C3N=C(/C=C4N=C1[C@@H](CCC(N)=O)C\4(C)C)[C@@H](CCC(N)=O)[C@]\3(C)CC(N)=O)[C@@H](CCC(N)=O)[C@]2(C)CC(N)=O.[CH3-].[Co+3] [methylcobalamin]
cbiMCbl riboswitch; FbFP-ΔcobA strain
  FbFP expression with VB12 analogues: similarly downregulated
cobA operon [1]; CbiM-ΔcobA strain
  cbiM expression with VB12 analogues: similarly downregulated
